Experimental data taken from patent US20080221158A1, “Novel 14 and 15 Membered Ring Compounds” (PLIVA - Istrazivacki Institut d.o.o, priority 2003, published 2008).

Assays:
Test in all cases: MIC against various organisms (broth dilution)
Assay type in all cases: cell-based
E. faecalis ATCC 29212 = details: Enterococcus faecalis, ATCC29212
Protocol: (§1) Using a standard broth dilution method in microtitre, compounds were tested for antibacterial activity. The compounds in the above examples gave minimum inhibitory concentrations (MICS) less than 1 microgram per millilitre against erythromycin-sensitive and erythromycin-resistant strains of Streptococcus pneumoniae and Streptococcus pyogenes.
(§2) In addition, the MIC (1 μg/mL) of test compounds against various organisms was determined including:
(§3) S. aureus Smith ATCC 13709, S. pnetnioniae SP030, S. pyogenes 3565, E. faecalis ATCC 29212, H. influenza ATCC 49247, M. catarrhalis ATCC 23246.

H. influenzae ATCC 49247 = details: Haemophilus influenzae, ATCC49247
Protocol: as §1, §2, §3

[1] = tested on: M. catarrhalis ATCC 23246; details: Moraxella catarrhalis, ATCC23246
Protocol: as §1, §2, §3

[2] = tested on: S. aureus Smith ATCC 13709; details: Staphylococcus aureus, ATCC13709
Protocol: as §1, §2, §3

S. pneumoniae SP030 = details: Streptococcus pneumoniae
Protocol: as §1, §2, §3

S. pyogenes 3565 = details: Streptococcus pyogenes
Protocol: as §1, §2, §3

Row | Structure (SMILES) | MIC (E. faecalis ATCC 29212) [µg/mL] | MIC (H. influenzae ATCC 49247) [µg/mL] | MIC [1] [µg/mL] | MIC [2] [µg/mL] | MIC (S. pneumoniae SP030) [µg/mL] | MIC (S. pyogenes 3565) [µg/mL]
1 | CC[C@@H]1OC(=O)[C@H](C)[C@H](O[C@@H]2C[C@@](O)(OC)[C@@H](NC(=O)CCOCCOc3cc4c(=O)c(C(=O)O)cn(C5CC5)c4cc3Cl)[C@H](C)O2)[C@@H](C)[C@H](O[C@@H]2O[C@H](C)C[C@H](N(C)C)[C@@H]2O)[C@](C)(O)C[C@H](C)CN(C)[C@H](C)[C@@H](O)[C@]1(C)O [Example 3, 4″-(S)-(3-[2-(3-Carboxy-7-chloro-1-cyclopropyl-4-oxo-1,4-dihydro-quinolin-6-yloxy)ethoxy]-propionylamino]-4″-deoxyazithromycin] | < 1 | < 2 | < 2 | < 1 | < 1 | < 1
2 | CC[C@H]1OC(=O)[C@H](C)[C@@H](O[C@H]2C[C@@](O)(OC)[C@@H](NC(=O)CCOCCNc3cc4c(=O)c(C(=O)O)cn(C5CC5)c4cc3Cl)[C@H](C)O2)[C@H](C)[C@@H](OC2O[C@H](C)C[C@H](N(C)C)[C@H]2O)[C@](C)(O)C[C@@H](C)CN(C)[C@H](C)[C@@H](O)[C@]1(C)O (stereo partly drawn) [Example 1] | < 1 | < 2 | < 2 | < 1 | < 1 | < 1
3 | CC[C@H]1OC(=O)[C@H](C)[C@@H](O[C@H]2C[C@@](O)(OC)[C@@H](NC(=O)CCOCCNc3cc4c(=O)c(C(=O)O)cn(C5CC5)c4cc3Cl)[C@H](C)O2)[C@H](C)[C@@H](O[C@@H]2O[C@H](C)C[C@H](N(C)C)[C@H]2O)[C@](C)(O)C[C@@H](C)CN(C)[C@H](C)[C@@H](O)[C@]1(C)O [Example 2] | < 1 | < 2 | < 2 | < 1 | < 1 | < 1
